Laboratory results taken from ChEMBL document CHEMBL5126582, “Discovery of (2-(pyrrolidin-1-yl)thieno[3,2-d]pyrimidin-4-yl)(3,4,5-trimethoxyphenyl)methanone as a novel potent tubulin depolymerizing and vascular disrupting agent” (Eur J Med Chem, 2022).
The source made the active and inactive calls. The rule behind the calls is not given here.

Experiments:
HeLa [1] = test: Induction of mitochondrial membrane potential alteration in human HeLa cells assessed as necrotic cells at 250 nM measured after 48 hrs by JC1 staining-based flow cytometry analysis (reference value: 0%); assay type: functional
HeLa [2] = test: Induction of apoptosis in human HeLa cells assessed as early apoptotic cells at 750 nM incubated for 72 hrs by annexin V FITC and propidium iodide staining based flow cytometry analysis (reference value: 2.36%); assay type: functional
HeLa [3] = test: Induction of apoptosis in human HeLa cells assessed as late apoptotic cells at 100 nM incubated for 72 hrs by annexin V FITC and propidium iodide staining based flow cytometry analysis (reference value: 4.70%); assay type: functional
HeLa [4] = test: Induction of mitochondrial membrane potential alteration in human HeLa cells assessed as late apoptotic cells at 250 nM measured after 48 hrs by JC1 staining-based flow cytometry analysis (reference value: 0.009%); assay type: functional
HeLa [5] = test: Induction of apoptosis in human HeLa cells assessed as late apoptotic cells at 750 nM incubated for 72 hrs by annexin V FITC and propidium iodide staining based flow cytometry analysis (reference value: 4.70%); assay type: functional
HeLa [6] = test: Induction of apoptosis in human HeLa cells assessed as viable cells at 750 nM incubated for 72 hrs by annexin V FITC and propidium iodide staining based flow cytometry analysis (reference value: 90.1%); assay type: functional; conditions: read-out: Activity
HeLa [7] = test: Induction of mitochondrial membrane potential alteration in human HeLa cells assessed as viable cells at 250 nM measured after 48 hrs by JC1 staining-based flow cytometry analysis (reference value: 90.9%); assay type: functional; conditions: read-out: Activity
HeLa [8] = test: Induction of apoptosis in human HeLa cells assessed as necrotic cells at 500 nM incubated for 24 hrs by annexin V FITC and propidium iodide staining based flow cytometry analysis (reference value: 1.14 %); assay type: functional
HeLa [9] = test: Induction of apoptosis in human HeLa cells assessed as viable cells at 500 nM incubated for 24 hrs by annexin V FITC and propidium iodide staining based flow cytometry analysis (reference value: 85.7%); assay type: functional; conditions: read-out: Activity
HeLa [10] = test: Induction of apoptosis in human HeLa cells assessed as necrotic cells at 500 nM incubated for 48 hrs by annexin V FITC and propidium iodide staining based flow cytometry analysis (reference value: 1.85 %); assay type: functional
HeLa [11] = test: Induction of apoptosis in human HeLa cells assessed as viable cells at 750 nM incubated for 24 hrs by annexin V FITC and propidium iodide staining based flow cytometry analysis (reference value: 85.7%); assay type: functional; conditions: read-out: Activity
HeLa [12] = test: Antiproliferative activity against human HeLa cells assessed as reduction in cell viability incubated for 48 hrs by MTS assay; assay type: functional, cell-based
HeLa [13] = test: Induction of mitochondrial membrane potential alteration in human HeLa cells assessed as necrotic cells at 1 uM measured after 48 hrs by JC1 staining-based flow cytometry analysis (reference value: 0%); assay type: functional
HeLa [14] = test: Induction of apoptosis in human HeLa cells assessed as necrotic cells at 100 nM incubated for 24 hrs by annexin V FITC and propidium iodide staining based flow cytometry analysis (reference value: 1.14 %); assay type: functional
HeLa [15] = test: Induction of mitochondrial membrane potential alteration in human HeLa cells assessed as viable cells at 500 nM measured after 48 hrs by JC1 staining-based flow cytometry analysis (reference value: 90.9%); assay type: functional; conditions: read-out: Activity
[16] = Resistance index, ratio of IC50 for antiproliferative activity against human A549/PTX cells assessed as reduction in cell viability to IC50 for antiproliferative activity against human A549 cells assessed as reduction in cell viability; assay type: functional
[17] = Metabolic stability in rat liver microsomes incubated for 5 mins in absence of NADPH by HPLC analysis; assay type: ADME, Microsome
HeLa [18] = test: Induction of apoptosis in human HeLa cells assessed as viable cells at 500 nM incubated for 48 hrs by annexin V FITC and propidium iodide staining based flow cytometry analysis (reference value: 85.5%); assay type: functional; conditions: read-out: Activity
HeLa [19] = test: Induction of cell cycle arrest in human HeLa cells assessed as reduction of cells at S phase at 100 to 2000 nM incubated for 24 to 48 hrs by […] flow cytometry; assay type: functional; conditions: dose 100-2000 nM, time 24-48 hrs
[20] = Metabolic stability in rat liver microsomes assessed as intrinsic clearance incubated for 5 mins in presence of NADPH by HPLC analysis; assay type: ADME, Microsome; conditions: read-out: CLH
HeLa [21] = test: Induction of apoptosis in human HeLa cells assessed as late apoptotic cells at 750 nM incubated for 48 hrs by annexin V FITC and propidium iodide staining based flow cytometry analysis (reference value: 8.87%); assay type: functional
HeLa [22] = test: Induction of mitochondrial membrane potential alteration in human HeLa cells assessed as late apoptotic cells at 1 uM measured after 48 hrs by JC1 staining-based flow cytometry analysis (reference value: 0.009%); assay type: functional
HeLa [23] = test: Induction of apoptosis in human HeLa cells assessed as necrotic cells at 1 uM incubated for 72 hrs by annexin V FITC and propidium iodide staining based flow cytometry analysis (reference value: 2.88 %); assay type: functional
HCT-116 = test: Antiproliferative activity against human HCT-116 cells assessed as reduction in cell viability incubated for 48 hrs by MTS assay; assay type: functional, cell-based; conditions: HCT-116, 48 h
HeLa [24] = test: Induction of apoptosis in human HeLa cells assessed as late apoptotic cells at 1 uM incubated for 24 hrs by annexin V FITC and propidium iodide staining based flow cytometry analysis (reference value: 0.05%); assay type: functional
[25] = Metabolic stability in rat liver microsomes assessed as half life incubated for 5 mins in presence of NADPH by HPLC analysis; assay type: ADME, Microsome
HeLa [26] = test: Induction of mitochondrial membrane potential alteration in human HeLa cells assessed as early apoptotic cells at 100 nM measured after 48 hrs by JC1 staining-based flow cytometry analysis (reference value: 9.07%); assay type: functional
HeLa [27] = test: Induction of apoptosis in human HeLa cells assessed as viable cells at 500 nM incubated for 72 hrs by annexin V FITC and propidium iodide staining based flow cytometry analysis (reference value: 90.1%); assay type: functional; conditions: read-out: Activity
HeLa [28] = test: Induction of mitochondrial membrane potential alteration in human HeLa cells assessed as late apoptotic cells at 500 nM measured after 48 hrs by JC1 staining-based flow cytometry analysis (reference value: 0.009%); assay type: functional
HeLa [29] = test: Induction of apoptosis in human HeLa cells assessed as viable cells at 1 uM incubated for 48 hrs by annexin V FITC and propidium iodide staining based flow cytometry analysis (reference value: 85.5%); assay type: functional; conditions: read-out: Activity
HeLa [30] = test: Induction of apoptosis in human HeLa cells assessed as late apoptotic cells at 100 nM incubated for 24 hrs by annexin V FITC and propidium iodide staining based flow cytometry analysis (reference value: 0.05%); assay type: functional
HeLa [31] = test: Induction of apoptosis in human HeLa cells assessed as necrotic cells at 1 uM incubated for 48 hrs by annexin V FITC and propidium iodide staining based flow cytometry analysis (reference value: 1.85 %); assay type: functional
HUVEC = test: Antivascular activity against human HUVEC cells assessed as inhibition of tube formation at 500 nM incubated for 3 hrs by matrigel matrix based microscopic analysis; assay type: functional, cell-based
HeLa [32] = test: Induction of apoptosis in human HeLa cells assessed as viable cells at 1 uM incubated for 72 hrs by annexin V FITC and propidium iodide staining based flow cytometry analysis (reference value: 90.1%); assay type: functional; conditions: read-out: Activity

COc1cc(C(=O)c2nc(N3CCCC3)nc3ccsc23)cc(OC)c1OC
Activity (HeLa [1]): 0.01%
Activity (HeLa [2]): 1.24%
Activity (HeLa [3]): 8.57%
Activity (HeLa [4]): 0.01%
Activity (HeLa [5]): 21.3%
viability at 0.75 µM (HeLa [6]): 27.7%
viability at 0.25 µM (HeLa [7]): 90.5%
Activity (HeLa [8]): 1.74%
viability at 0.5 µM (HeLa [9]): 80.1%
Activity (HeLa [10]): 8.84%
viability at 0.75 µM (HeLa [11]): 81.3%
IC50 (HeLa [12]): 3 nM
Activity (HeLa [13]): 0.053%
Activity (HeLa [14]): 1.52%
viability at 0.5 µM (HeLa [15]): 66.9%
Ratio IC50 [16]: 1.7
Stability [17]: Stable
viability at 0.5 µM (HeLa [18]): 78.1%
Activity (HeLa [19]): Active
microsomal CLint [20]: 40.8 µL/min/mg
Activity (HeLa [21]): 33.1%
Activity (HeLa [22]): 0.053%
Activity (HeLa [23]): 41.9%
IC50 (HCT-116): 21 nM
Activity (HeLa [24]): 0.13%
half-life [25]: 17 min
Activity (HeLa [26]): 7.59%
viability at 0.5 µM (HeLa [27]): 32.6%
Activity (HeLa [28]): 0.019%
viability at 1 µM (HeLa [29]): 0.77%
Activity (HeLa [30]): 5.04%
Activity (HeLa [31]): 46.3%
Activity (HUVEC): Active
viability at 1 µM (HeLa [32]): 27.9%
